Laboratory results published in patent US6608086B2, “Dihydropyridines and new uses thereof” (Synaptic Pharmaceutical Corporation, priority 1993, dated 2003).
Like-named read-outs stand apart in the source and are kept apart here.

Legend:
[1] = target: T1, α1C Human Adrenergic Receptor (Homo sapiens, UniProt P35348); assay: Radioligand binding, [3H]prazosin, cloned human α1C adrenergic receptor
T1 construct: The entire coding region of α1C (1401 bp); expressed in transfected cells
T1 sequence (P35348 1-466): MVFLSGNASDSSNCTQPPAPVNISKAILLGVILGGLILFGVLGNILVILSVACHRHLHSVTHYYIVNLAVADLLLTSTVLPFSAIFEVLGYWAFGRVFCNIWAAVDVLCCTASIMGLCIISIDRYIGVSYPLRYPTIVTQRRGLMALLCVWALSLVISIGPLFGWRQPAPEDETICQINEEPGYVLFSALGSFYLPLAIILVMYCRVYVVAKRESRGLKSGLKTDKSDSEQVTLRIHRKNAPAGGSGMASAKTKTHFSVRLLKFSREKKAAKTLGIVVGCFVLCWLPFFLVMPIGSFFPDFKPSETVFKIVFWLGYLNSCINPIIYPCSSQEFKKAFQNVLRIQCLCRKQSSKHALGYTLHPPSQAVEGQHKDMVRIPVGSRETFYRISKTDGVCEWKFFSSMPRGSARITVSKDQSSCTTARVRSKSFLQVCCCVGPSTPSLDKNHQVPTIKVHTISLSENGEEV
Procedure, shortened: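 Membranes from LM(tk−) cells stably expressing the cloned human α1C receptor were incubated with 0.5 nM [3H]prazosin at 37° C. for 20 min in 50 mM Tris-HCl, 1 mM MgCl2, 0.1% ascorbic acid, pH 7.5. Nonspecific binding was defined with 10 μM phentolamine, and bound ligand was separated by GF/B filtration.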

α2B receptor = target: T2, α2B receptor (Homo sapiens, UniProt P18089); assay: Competition binding, [3H]rauwolscine, human α2B receptor; conditions: [3H]rauwolscine
T2 construct: host or cells: LM(tk-) cells, line L-NGC-α2B
T2 sequence (P18089 1-450): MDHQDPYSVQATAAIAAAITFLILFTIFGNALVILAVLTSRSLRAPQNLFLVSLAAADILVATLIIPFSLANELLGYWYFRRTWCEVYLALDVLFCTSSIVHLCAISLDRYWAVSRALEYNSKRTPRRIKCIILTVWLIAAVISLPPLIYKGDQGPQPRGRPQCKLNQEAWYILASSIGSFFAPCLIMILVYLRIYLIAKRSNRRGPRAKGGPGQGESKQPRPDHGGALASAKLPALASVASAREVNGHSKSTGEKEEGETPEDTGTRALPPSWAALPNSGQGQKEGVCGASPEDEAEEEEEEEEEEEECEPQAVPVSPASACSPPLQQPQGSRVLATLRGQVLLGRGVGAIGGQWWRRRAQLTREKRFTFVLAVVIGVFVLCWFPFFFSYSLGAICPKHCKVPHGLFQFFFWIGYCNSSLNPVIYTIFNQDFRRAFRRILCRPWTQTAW
Procedure, shortened: (§1)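 LM(tk−) lysates, stable α2A/α2B/α2C transfectants; 25 mM glycylglycine pH 7.6 (RT). [3H]rauwolscine 0.5 nM, equilibrium competition; NSB 10 μM phentolamine. GF/B filtration, cell harvester.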

L-type calcium channel = target: T3, L-type calcium channel (Rattus norvegicus, UniProt P22002); assay: Competition binding of [3H]nitrendipine to membrane fragments of rat cardiac muscle; conditions: [3H]nitrendipine
T3 construct: membrane fragments of rat cardiac muscle; from tissue; host or cells: rat cardiac muscle membranes
T3 sequence (P22002 whole entry, other chains not shown, the tested form may be a part): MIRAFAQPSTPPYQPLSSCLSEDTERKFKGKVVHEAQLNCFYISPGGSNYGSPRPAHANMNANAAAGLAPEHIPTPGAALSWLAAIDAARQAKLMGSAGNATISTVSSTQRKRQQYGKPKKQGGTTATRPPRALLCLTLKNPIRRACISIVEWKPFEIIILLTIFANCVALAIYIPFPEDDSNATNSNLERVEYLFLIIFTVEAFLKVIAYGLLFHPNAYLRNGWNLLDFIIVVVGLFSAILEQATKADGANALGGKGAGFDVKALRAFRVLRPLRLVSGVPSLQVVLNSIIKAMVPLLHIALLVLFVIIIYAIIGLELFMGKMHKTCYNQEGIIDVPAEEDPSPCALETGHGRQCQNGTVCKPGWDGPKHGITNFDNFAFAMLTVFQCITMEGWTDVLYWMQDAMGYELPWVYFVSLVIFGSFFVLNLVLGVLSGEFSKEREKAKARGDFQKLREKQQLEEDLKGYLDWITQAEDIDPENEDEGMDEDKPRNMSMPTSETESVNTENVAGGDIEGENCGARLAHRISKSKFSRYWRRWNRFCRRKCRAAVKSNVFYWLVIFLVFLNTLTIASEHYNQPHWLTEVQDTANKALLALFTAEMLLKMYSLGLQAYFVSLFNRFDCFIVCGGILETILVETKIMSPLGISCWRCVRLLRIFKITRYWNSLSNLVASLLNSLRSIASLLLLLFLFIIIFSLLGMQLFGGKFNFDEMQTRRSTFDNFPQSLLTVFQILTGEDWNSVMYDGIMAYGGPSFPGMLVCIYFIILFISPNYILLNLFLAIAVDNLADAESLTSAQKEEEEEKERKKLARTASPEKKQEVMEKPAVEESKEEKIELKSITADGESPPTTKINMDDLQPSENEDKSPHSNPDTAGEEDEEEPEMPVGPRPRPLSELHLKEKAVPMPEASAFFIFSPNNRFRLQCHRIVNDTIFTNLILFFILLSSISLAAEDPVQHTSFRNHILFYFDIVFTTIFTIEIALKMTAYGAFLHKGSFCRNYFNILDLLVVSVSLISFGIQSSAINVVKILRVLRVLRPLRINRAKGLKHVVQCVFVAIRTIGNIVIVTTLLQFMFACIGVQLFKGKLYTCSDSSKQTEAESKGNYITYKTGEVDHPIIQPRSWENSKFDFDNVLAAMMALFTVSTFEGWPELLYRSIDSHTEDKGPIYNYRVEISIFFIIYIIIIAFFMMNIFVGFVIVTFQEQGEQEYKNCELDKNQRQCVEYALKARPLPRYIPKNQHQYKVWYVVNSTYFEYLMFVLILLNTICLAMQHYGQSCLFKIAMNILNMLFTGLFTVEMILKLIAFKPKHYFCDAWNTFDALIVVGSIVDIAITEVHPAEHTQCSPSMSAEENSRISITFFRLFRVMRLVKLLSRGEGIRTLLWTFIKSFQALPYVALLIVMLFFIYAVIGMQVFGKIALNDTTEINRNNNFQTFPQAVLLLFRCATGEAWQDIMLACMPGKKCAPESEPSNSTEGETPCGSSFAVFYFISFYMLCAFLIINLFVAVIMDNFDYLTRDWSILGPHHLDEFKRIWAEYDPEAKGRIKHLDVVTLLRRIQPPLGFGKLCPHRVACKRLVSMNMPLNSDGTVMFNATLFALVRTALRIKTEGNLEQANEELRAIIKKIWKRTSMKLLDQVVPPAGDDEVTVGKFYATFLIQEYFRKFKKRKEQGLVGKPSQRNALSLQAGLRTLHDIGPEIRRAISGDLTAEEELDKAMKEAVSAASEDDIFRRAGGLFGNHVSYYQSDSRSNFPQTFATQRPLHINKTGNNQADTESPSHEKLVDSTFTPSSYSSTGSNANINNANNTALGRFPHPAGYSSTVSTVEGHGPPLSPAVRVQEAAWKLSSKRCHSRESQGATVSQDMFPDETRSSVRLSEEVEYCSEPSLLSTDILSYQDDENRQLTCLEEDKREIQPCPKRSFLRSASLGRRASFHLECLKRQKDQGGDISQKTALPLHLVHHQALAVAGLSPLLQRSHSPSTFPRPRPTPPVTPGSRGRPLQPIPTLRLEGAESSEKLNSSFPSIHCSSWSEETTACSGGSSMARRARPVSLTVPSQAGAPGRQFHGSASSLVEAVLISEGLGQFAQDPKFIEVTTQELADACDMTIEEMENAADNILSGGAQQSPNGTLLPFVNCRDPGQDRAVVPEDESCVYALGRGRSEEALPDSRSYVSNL
T3 sequence (P54290 25-944 partner limits assumed, other chains not shown): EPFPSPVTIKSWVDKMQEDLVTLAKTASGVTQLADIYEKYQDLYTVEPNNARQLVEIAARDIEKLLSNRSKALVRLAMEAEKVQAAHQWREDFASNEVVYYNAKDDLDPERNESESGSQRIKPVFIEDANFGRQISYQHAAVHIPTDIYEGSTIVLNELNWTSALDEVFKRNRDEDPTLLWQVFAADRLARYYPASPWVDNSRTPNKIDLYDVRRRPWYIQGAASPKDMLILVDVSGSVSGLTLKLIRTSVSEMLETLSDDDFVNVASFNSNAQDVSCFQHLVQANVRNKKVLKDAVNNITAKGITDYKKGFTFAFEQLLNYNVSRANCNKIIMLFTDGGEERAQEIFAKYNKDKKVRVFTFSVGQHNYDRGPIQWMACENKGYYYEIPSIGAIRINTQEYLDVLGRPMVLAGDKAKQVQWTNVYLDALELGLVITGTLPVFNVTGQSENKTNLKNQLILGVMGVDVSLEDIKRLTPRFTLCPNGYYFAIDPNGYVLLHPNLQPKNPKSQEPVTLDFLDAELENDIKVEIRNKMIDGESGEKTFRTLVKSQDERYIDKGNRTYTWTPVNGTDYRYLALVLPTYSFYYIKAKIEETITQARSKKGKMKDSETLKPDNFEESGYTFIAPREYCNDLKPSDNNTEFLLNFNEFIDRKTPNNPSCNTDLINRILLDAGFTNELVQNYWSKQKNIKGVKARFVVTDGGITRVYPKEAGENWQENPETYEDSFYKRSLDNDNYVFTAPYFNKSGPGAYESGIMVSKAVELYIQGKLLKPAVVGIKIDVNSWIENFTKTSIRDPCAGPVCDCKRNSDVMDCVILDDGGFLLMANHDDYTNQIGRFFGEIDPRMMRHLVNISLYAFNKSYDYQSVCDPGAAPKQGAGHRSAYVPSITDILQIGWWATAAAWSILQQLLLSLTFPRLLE
T3 sequence (P54290 945-1091 partner limits assumed, other chains not shown): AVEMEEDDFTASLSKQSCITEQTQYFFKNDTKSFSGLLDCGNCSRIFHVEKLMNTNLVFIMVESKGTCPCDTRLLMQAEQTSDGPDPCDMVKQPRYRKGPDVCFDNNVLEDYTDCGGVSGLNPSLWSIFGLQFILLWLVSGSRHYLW

α2C receptor = target: T4, α2C receptor (Homo sapiens, UniProt P18825); assay: Competition binding, [3H]rauwolscine, human α2C receptor; conditions: [3H]rauwolscine
T4 construct: host or cells: LM(tk-) cells, line L-α2C
T4 sequence (P18825 1-462): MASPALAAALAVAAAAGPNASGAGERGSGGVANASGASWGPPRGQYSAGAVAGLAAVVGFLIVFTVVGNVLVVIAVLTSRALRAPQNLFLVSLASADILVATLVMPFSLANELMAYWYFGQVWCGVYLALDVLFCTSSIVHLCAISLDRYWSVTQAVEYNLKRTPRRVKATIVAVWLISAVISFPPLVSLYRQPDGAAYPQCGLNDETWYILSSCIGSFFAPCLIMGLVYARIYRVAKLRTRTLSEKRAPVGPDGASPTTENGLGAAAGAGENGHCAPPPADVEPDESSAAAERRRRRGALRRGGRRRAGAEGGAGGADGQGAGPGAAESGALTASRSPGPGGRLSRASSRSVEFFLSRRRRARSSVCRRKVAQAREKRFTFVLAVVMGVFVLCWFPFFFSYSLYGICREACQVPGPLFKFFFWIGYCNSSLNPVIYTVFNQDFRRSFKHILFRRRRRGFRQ
Procedure, shortened: as §1

[2] = cloned human receptor in LM(tk-) cell membranes, SEM and n in lines below, read-out: pKi alpha-1 1c (converted)
[3] = LM(tk-) cell line L-NGC-α2B, SEM and n in lines below, read-out: pKi alpha-2 2b (converted)
[4] = rat cardiac muscle membranes, SEM and n in lines below, read-out: pKi Ca (converted)
[5] = LM(tk-) cell line L-α2C, SEM and n in lines below, read-out: pKi alpha-2 2c (converted)
[6] = cloned human receptor, LM(tk-) cell membranes, mean, read-out: PKi alpha-1 1c (converted)
[7] = human receptor, LM(tk-) cell lysates, mean, read-out: PKi alpha-2 2b (converted)
[8] = rat cardiac muscle membranes, mean, read-out: PKi Ca (converted)
[9] = human receptor, LM(tk-) cell lysates, mean, read-out: PKi alpha-2 2c (converted)
[10] = human receptor, LM(tk-) cell lysates, mean

Ki [1, 2] | Ki (α2B receptor; [3]) | Ki (L-type calcium channel; [4]) | melting point | Ki (α2C receptor; [5]) | Compound | further results
0.000537 µM | 0.141 µM | 10 µM | 191 to 192 °C | 0.0269 µM | COC(=O)C1=C(C)NC(C)=C(C(=O)NCCCN2CCC(c3ccccc3)CC2)C1c1ccc(Cl)c([N+](=O)[O-])c1 (centres unmarked) [Example 17, 4-(4-Chloro-3-nitrophenyl)-1,4-dihydro-3-methoxycarbonyl-2,6-dimethyl-5-(N-(3-(4-phenylpiperidin-1-yl)propyl)carboxamido)pyridine] | –
0.00302 µM | 0.234 µM | 0.0955 µM | 78 to 80 °C | 0.049 µM | COC(=O)C1=C(C)NC(C)=C(C(=O)NCCCN2CCC(c3ccccc3)CC2)C1c1cccc([N+](=O)[O-])c1 (centres unmarked) [Example 30, 1,4-Dihydro-3-methoxycarbonyl-2,6-dimethyl-4-(3-nitrophenyl)-5-(N-(3-(4-phenylpiperidin-1-yl)propyl)carboxamido)pyridine] | –
0.00275 µM | 0.0692 µM | 158 µM | 100 to 105 °C | 0.0676 µM | CC1=C(C(N)=O)C(c2ccc([N+](=O)[O-])cc2)C(C(=O)NCCCN2CCC(c3ccccc3)CC2)=C(C)N1 (centres unmarked) [Example 60, 5-Carboxamido-1,4-dihydro-2,6-dimethyl-4-(4-nitrophenyl)-3-{N-[3-(4-phenylpiperidin-1-yl)propyl]}carboxamidopyridine] | –
0.00263 µM | 0.0575 µM | 19.5 µM | 92 to 96 °C | 0.049 µM | CC1=C(C(N)=O)C(c2cccc([N+](=O)[O-])c2)C(C(=O)NCCCN2CCC(c3ccccc3)CC2)=C(C)N1 (centres unmarked) [Example 62] | –
0.0389 µM | 0.132 µM | 66.1 µM | 202 to 205 °C | 0.17 µM | CC1=C(C(=O)NCCCN2CCC(c3ccccc3)CC2)C(c2ccc([N+](=O)[O-])cc2)c2c([nH]c(=O)[nH]c2=O)N1 (centres unmarked) [Example 63, 1,4-Dihydro-6-methyl-4-(4-nitrophenyl)-5-{N-[3-(4-phenylpiperidin-1-yl)propyl]}carboxamido-[2,3, d]uracilylpyridine] | –
– | – | – | 90 to 101 °C | – | CCC1=C(C(N)=O)C(c2ccc([N+](=O)[O-])cc2)C(C(=O)NCCCN2CCC(c3ccccc3)CC2)=C(CC)N1 (centres unmarked) [Example 121, 5-Carboxamido-2,6-diethyl-1,4-dihydro-4-(4-nitrophenyl)-3-{N-[3-(4-phenylpiperidin-1-yl)propyl]}carboxamidopyridine] | Ki ([1]; cloned human α1C receptor, LM(tk−) cell membranes, read-out: pKi alpha-1 1c (converted)): 0.00132 µM; Ki (α2B receptor; human α2B receptor, LM(tk−) cells, read-out: pKi alpha-2 2b (converted)): 0.257 µM; Ki (L-type calcium channel; rat cardiac muscle membrane fragments, L-type calcium channel, read-out: pKi Ca (converted)): 16.6 µM; Ki (α2C receptor; human α2C receptor, LM(tk−) cells, read-out: pKi alpha-2 2c (converted)): 0.191 µM
– | – | – | – | – | CCC1=C(C(=O)NC)C(c2ccc([N+](=O)[O-])cc2)C(C(=O)NCCCN2CCC(C#N)(c3ccccc3)CC2)=C(CC)N1 (centres unmarked) [Example 126, 3-{N-[3-(4-Cyano-4-phenylpiperidin-1-yl)propyl]}carboxamido-1,4-dihydro-2,6-diethyl-5-(1-methyl)carboxamido-4-(4-nitrophenyl)pyridine] | pKi alpha-1 1c ([1]; cloned human α1C receptor, LM(tk−) cell membranes): 7.95; pKi alpha-2 2b (α2B receptor; human α2B receptor, LM(tk−) cells): 5.63; pKi Ca (L-type calcium channel; rat cardiac muscle membrane fragments, L-type calcium channel): 6.34; pKi alpha-2 2c (α2C receptor; human α2C receptor, LM(tk−) cells): 5.36
– | – | – | – | – | COC(=O)C1(c2ccccc2)CCN(CCCNC(=O)C2=C(COCCN=[N+]=[N-])NC(C)=C(C(N)=O)C2c2ccc([N+](=O)[O-])cc2)CC1 (centres unmarked) [Example 183, 2-[(2-Azidoethoxy)methyl]-5-carboxamido-1,4-dihydro-3-{N-[3-(4-methoxycarbonyl-4-phenylpiperidin-1-yl)propyl]}carboxamido-6-methyl-4-(4-nitrophenyl)pyridine] | Ki [1, 6]: 0.000851 µM; Ki (α2B receptor; [7]): 0.724 µM; Ki (L-type calcium channel; [8]): 74.1 µM; Ki (α2C receptor; [9]): 0.437 µM
– | – | – | – | – | CC1=C(C(N)=O)C(c2ccc([N+](=O)[O-])cc2)C(C(=O)NCCCN2CCC(C(=O)OCCC#N)(c3ccccc3)CC2)=CN1C (centres unmarked) [Example 209, 5-Carboxamido-3-{N-[3-(4-(2-cyanoethoxycarbonyl)-4-phenylpiperidin-1-yl)propyl]}carboxamido-1,4-dihydro-1,6-dimethyl-4-(4-nitrophenyl) pyridine] | PKi alpha-1 1c ([1]; cloned human receptor, LM(tk-) cell membranes, mean): 8.41; PKi alpha-2 2b (α2B receptor; [10]): 6.46; PKi Ca (L-type calcium channel; rat cardiac muscle membranes, mean): 4.53; PKi alpha-2 2c (α2C receptor; [10]): 5.70
– | – | – | – | – | CCC1=C(C(N)=O)C(c2ccc([N+](=O)[O-])cc2)C(C(=O)NCCCN2CCC(C(=O)OC)(c3ccccc3)CC2)=C(COCCN)N1 (centres unmarked) [Example 234, 2-((2-Aminoethyl)oxy)methyl-5-carboxamido-6-ethyl-1,4-dihydro-3-(N-(3-(4-methoxycarbonyl-4-phenylpiperidin-1-yl)propyl)) carboxamido-4-(4-nitro)phenylpyridine] | Ki [1, 6]: 0.00162 µM; Ki (α2B receptor; [7]): 4.9 µM; Ki (L-type calcium channel; [8]): 398 µM; Ki (α2C receptor; [9]): 0.832 µM

Compound | Ki [1, 2] | Ki (α2B receptor; [3]) | Ki (L-type calcium channel; [4]) | melting point | Ki (α2C receptor; [5]) | further results
CC1=C(C(=O)NCCCN2CCC(c3ccccc3)(c3ccccc3)CC2)C(c2ccc([N+](=O)[O-])cc2)C(C(=O)N(C)C)=C(C)N1 (centres unmarked) [Example 39, 1,4-Dihydro-2,6-dimethyl-3-(N,N-dimethyl) carboxamido-4-(4-nitrophenyl)-5-{N-[3-(4,4-diphenylpiperidin-1-yl)propyl]}carboxamidopyridine] | – | – | 44.7 µM | 135 °C | – | pKi alpha-1 1c ([1]; cloned human receptor in LM(tk-) cell membranes, SEM and n in lines below): 7.23; pKi alpha-2 2b (α2B receptor; LM(tk-) cell line L-NGC-α2B, SEM and n in lines below): 5.74; pKi alpha-2 2c (α2C receptor; LM(tk-) cell line L-α2C, SEM and n in lines below): 6.09
CCC1=C(C(N)=O)C(c2ccc([N+](=O)[O-])cc2)C(C(=O)NCCCN2CCC(C(=O)OC)(c3ccccc3)CC2)=C(CCCCN)N1 (centres unmarked) [Example 166, 2-(4-Aminobutyl)-5-carboxamido-6-ethyl-1,4-dihydro-3-{N-[3-(4-methoxycarbonyl-4-phenylpiperidin-1-yl)propyl]}carboxamido-4-(4-nitrophenyl)pyridine] | – | – | – | 75 to 78 °C | – | Ki [1, 6]: 0.00129 µM; Ki (α2B receptor; [7]): 3.89 µM; Ki (L-type calcium channel; [8]): 132 µM; Ki (α2C receptor; [9]): 1.02 µM
